From BindingDB's records for doi:10.1111/j.1432-1033.1991.tb16455.x (Georg-August-University, 1991)
Square brackets hold non-standard residues; d marks the D form. Peptide text beside a SMILES is read from it. ξ: configuration not given here. Ile(3ξ) = CCC(C)[C@H](N)C(=O)O

Biological target: T1, Pituitary adenylate cyclase-activating polypeptide (Rattus norvegicus, UniProt P13589)
T1 sequence (P13589 whole entry): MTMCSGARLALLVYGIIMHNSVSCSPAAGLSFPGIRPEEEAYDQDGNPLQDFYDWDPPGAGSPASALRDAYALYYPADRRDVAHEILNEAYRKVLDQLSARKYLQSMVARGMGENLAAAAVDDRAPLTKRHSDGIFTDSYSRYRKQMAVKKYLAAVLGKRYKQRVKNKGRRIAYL

Ki [nM]	Compound
600	Nc1nc2c(ncn2[C@@H]2O[C@H](COP(=O)(O)OP(=O)(O)OP(=O)(O)O)C(O)C2O)c(=O)[nH]1 (stereo partly specified) [+ 1 mM GTP]
1000	CC[C@H](C)[C@H](NC(=O)[C@H](CO)NC(=O)[C@H](CC(N)=O)NC(=O)[C@H](CC(C)C)NC(=O)[C@H](Cc1ccc(O)cc1)NC(=O)[C@H](CCCCN)NC(=O)[C@H](CCCCN)NC(=O)[C@@H](NC(=O)[C@H](C)NC(=O)[C@H](CCSC)NC(=O)[C@H](CCC(N)=O)NC(=O)[C@H](CCCCN)NC(=O)[C@H](CCCN=C(N)N)NC(=O)[C@H](CC(C)C)NC(=O)[C@H](CCCN=C(N)N)NC(=O)[C@@H](NC(=O)[C@H](Cc1ccc(O)cc1)NC(=O)[C@H](CC(N)=O)NC(=O)[C@H](CC(=O)O)NC(=O)[C@@H](NC(=O)[C@H](Cc1ccccc1)NC(=O)[C@@H](NC(=O)[C@H](C)NC(=O)[C@H](CC(=O)O)NC(=O)[C@H](CO)NC(=O)[C@@H](N)Cc1cnc[nH]1)C(C)C)[C@@H](C)O)[C@@H](C)O)C(C)C)C(=O)N[C@@H](CC(C)C)C(=O)N[C@@H](CC(N)=O)C(=O)O [CAS_37221-79-7]
> 10000	Nc1nc2c(ncn2[C@H]2O[C@@H](COP(=O)(O)O)[C@H](O)[C@@H]2O)c(=O)[nH]1 [NSC_6804]
1000	CC[C@H](C)[C@H](NC(=O)CNC(=O)[C@H](CC(=O)O)NC(=O)[C@H](CO)NC(=O)[C@@H](N)Cc1cnc[nH]1)C(=O)N[C@@H](Cc1ccccc1)C(=O)N[C@H](C(=O)N[C@@H](CC(=O)O)C(=O)N[C@@H](CO)C(=O)N[C@@H](Cc1ccc(O)cc1)C(=O)N[C@@H](CO)C(=O)N[C@@H](CCCN=C(N)N)C(=O)N[C@@H](Cc1ccc(O)cc1)C(=O)N[C@@H](CCCN=C(N)N)C(=O)N[C@@H](CCCCN)C(=O)N[C@@H](CCC(N)=O)C(=O)N[C@@H](CCSC)C(=O)N[C@@H](C)C(=O)N[C@H](C(=O)N[C@@H](CCCCN)C(=O)N[C@@H](CCCCN)C(=O)N[C@@H](Cc1ccc(O)cc1)C(=O)N[C@@H](CC(C)C)C(N)=O)C(C)C)[C@@H](C)O [PACAP(1-23)]
4.7	CC[C@H](C)[C@H](NC(=O)CNC(=O)[C@H](CCC(=O)O)NC(=O)[C@H](CO)NC(=O)[C@@H](N)Cc1cnc[nH]1)C(=O)N[C@@H](Cc1ccccc1)C(=O)N[C@H](C(=O)N[C@@H](CC(=O)O)C(=O)N[C@@H](CO)C(=O)N[C@@H](Cc1ccc(O)cc1)C(=O)N[C@@H](CO)C(=O)N[C@@H](CCCNC(=N)N)C(=O)N[C@@H](Cc1ccc(O)cc1)C(=O)N[C@@H](CCCNC(=N)N)C(=O)N[C@@H](CCCCN)C(=O)N[C@@H](CCC(N)=O)C(=O)N[C@@H](CCSC)C(=O)N[C@@H](C)C(=O)N[C@H](C(=O)N[C@@H](CCCCN)C(=O)N[C@@H](CCCCN)C(=O)N[C@@H](Cc1ccc(O)cc1)C(=O)N[C@@H](CC(C)C)C(=O)N[C@@H](C)C(=O)N[C@@H](C)C(=O)N[C@H](C(=O)N[C@@H](CC(C)C)C(N)=O)C(C)C)C(C)C)[C@@H](C)O [PACAP(1-27)]
6.4	CCC(C)[C@H](NC(=O)CNC(=O)[C@H](CC(=O)O)NC(=O)[C@H](CO)NC(=O)[C@@H](N)Cc1cnc[nH]1)C(=O)N[C@@H](Cc1ccccc1)C(=O)N[C@H](C(=O)N[C@@H](CC(=O)O)C(=O)N[C@@H](CO)C(=O)N[C@@H](Cc1ccc(O)cc1)C(=O)N[C@@H](CO)C(=O)N[C@@H](CCCN=C(N)N)C(=O)N[C@@H](Cc1ccc(O)cc1)C(=O)N[C@@H](CCCN=C(N)N)C(=O)N[C@@H](CCCCN)C(=O)N[C@@H](CCC(N)=O)C(=O)N[C@@H](CCSC)C(=O)N[C@@H](C)C(=O)N[C@H](C(=O)N[C@@H](CCCCN)C(=O)N[C@@H](CCCCN)C(=O)N[C@@H](Cc1ccc(O)cc1)C(=O)N[C@@H](CC(C)C)C(=O)N[C@@H](C)C(=O)N[C@@H](C)C(=O)N[C@H](C(=O)N[C@@H](CC(C)C)C(=O)NCC(=O)N[C@@H](CCCCN)C(=O)N[C@@H](CCCN=C(N)N)C(=O)N[C@@H](Cc1ccc(O)cc1)C(=O)N[C@@H](CCCCN)C(=O)N[C@@H](CCC(N)=O)C(=O)N[C@@H](CS)C(N)=O)C(C)C)C(C)C)[C@@H](C)O (stereo partly specified) [PACAP(1-33,Cys34)]
1000	CCC(C)[C@H](NC(=O)CNC(=O)[C@@H](N)CC(=O)O)C(=O)N[C@@H](Cc1ccccc1)C(=O)N[C@H](C(=O)N[C@@H](CC(=O)O)C(=O)N[C@@H](CO)C(=O)N[C@@H](Cc1ccc(O)cc1)C(=O)N[C@@H](CO)C(=O)N[C@@H](CCCN=C(N)N)C(=O)N[C@@H](Cc1ccc(O)cc1)C(=O)N[C@@H](CCCN=C(N)N)C(=O)N[C@@H](CCCCN)C(=O)N[C@@H](CCC(N)=O)C(=O)N[C@@H](CCSC)C(=O)N[C@@H](C)C(=O)N[C@H](C(=O)N[C@@H](CCCCN)C(=O)N[C@@H](CCCCN)C(=O)N[C@@H](Cc1ccc(O)cc1)C(=O)N[C@@H](CC(C)C)C(=O)N[C@@H](C)C(=O)N[C@@H](C)C(N)=O)C(C)C)[C@@H](C)O (stereo partly specified) [PACAP(3-25)] (H-DG[Ile(3ξ)]FTDSYSRYRKQMAVKKYLAA-NH2)
1.9	CC[C@H](C)[C@H](NC(=O)CNC(=O)[C@H](CC(=O)O)NC(=O)[C@H](CO)NC(=O)[C@@H](N)Cc1cnc[nH]1)C(=O)N[C@@H](Cc1ccccc1)C(=O)N[C@H](C(=O)N[C@@H](CC(=O)O)C(=O)N[C@@H](CO)C(=O)N[C@@H](Cc1ccc(O)cc1)C(=O)N[C@@H](CO)C(=O)N[C@@H](CCCNC(=N)N)C(=O)N[C@@H](Cc1ccc(O)cc1)C(=O)N[C@@H](CCCNC(=N)N)C(=O)N[C@@H](CCCCN)C(=O)N[C@@H](CCC(N)=O)C(=O)N[C@@H](CCSC)C(=O)N[C@@H](C)C(=O)N[C@H](C(=O)N[C@@H](CCCCN)C(=O)N[C@@H](CCCCN)C(=O)N[C@@H](Cc1ccc(O)cc1)C(=O)N[C@@H](CC(C)C)C(=O)N[C@@H](C)C(=O)N[C@@H](C)C(=O)N[C@H](C(=O)N[C@@H](CC(C)C)C(=O)NCC(=O)N[C@@H](CCCCN)C(=O)N[C@@H](CCCNC(=N)N)C(=O)N[C@@H](Cc1ccc(O)cc1)C(=O)N[C@@H](CCCCN)C(=O)N[C@@H](CCC(N)=O)C(=O)N[C@@H](CCCNC(=N)N)C(=O)N[C@H](C(=O)N[C@@H](CCCCN)C(=O)N[C@@H](CC(N)=O)C(=O)N[C@@H](CCCCN)C(N)=O)C(C)C)C(C)C)C(C)C)[C@@H](C)O [PACAP]
3.1	H-HSDGIFTDSYSRYRKQMAVKKYLNSILN-NH2 [PACAP(1-23),VIP(24-28)]

Compound	Ki [nM]
Nc1nc2c(ncn2C2OC(COP(=O)(O)OP(=O)(O)OP(=O)(O)S)C(O)C2O)c(=O)[nH]1 (stereo unspecified) [CAS_444121]	40
Nc1nc2c(ncn2C2OC(COP(O)(=S)OP(=O)(O)O)C(O)C2O)c(=O)[nH]1 (stereo unspecified) [NSC_196042]	340
